Read-outs that look alike come from different tables or passages of the source.
Columns and labels:
[1] = pKa determination by potentiometric titration; conditions: water/methanol (1:1)
Experimental: (§1) A 5 mM solution of 4,4′-dihydroxybenzophenone or bis-(4-hydroxyphenyl)methane in water/methanol (1:1) at room temperature was prepared and its pH read (WPA Linton Cambridge UK, CCMD625 pH meter). The titrant (50 mM KOH) was then added in equal portions. The pH was recorded after each addition when equilibrium has been reached (after stirring).

[2] = cited from earlier work
steroid sulphatase (STS) = biological target: T1, steroid sulphatase (STS) (Homo sapiens, UniProt P08842); conditions: compared with EMATE; cited from earlier work
T1 sequence (P08842 22-583): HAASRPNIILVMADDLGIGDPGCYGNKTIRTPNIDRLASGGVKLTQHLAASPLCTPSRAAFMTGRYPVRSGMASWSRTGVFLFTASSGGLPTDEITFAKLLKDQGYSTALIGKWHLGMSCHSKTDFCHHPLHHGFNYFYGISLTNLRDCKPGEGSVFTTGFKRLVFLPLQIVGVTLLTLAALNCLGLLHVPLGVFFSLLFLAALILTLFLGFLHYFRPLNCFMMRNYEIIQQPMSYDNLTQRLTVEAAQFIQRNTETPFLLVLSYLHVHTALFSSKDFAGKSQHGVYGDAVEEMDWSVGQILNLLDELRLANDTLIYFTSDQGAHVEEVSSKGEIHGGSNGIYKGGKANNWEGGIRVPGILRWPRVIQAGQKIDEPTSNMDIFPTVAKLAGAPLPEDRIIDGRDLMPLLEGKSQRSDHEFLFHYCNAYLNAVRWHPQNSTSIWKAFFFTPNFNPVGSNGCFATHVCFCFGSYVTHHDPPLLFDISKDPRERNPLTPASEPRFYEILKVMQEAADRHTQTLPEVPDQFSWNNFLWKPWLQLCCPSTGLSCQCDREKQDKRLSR

Plate assay % inhibition = assay type: cell-based; conditions: -ve % means stimulation
[3] = in vivo; cited from earlier work
liver E1-STS = biological target: T2, liver E1-STS (Rattus norvegicus, UniProt P15589); conditions: administered either orally or subcutaneously; cited from earlier work
T2 construct: samples of liver tissue were removed and immediately frozen on solid carbon dioxide; from tissue; host or cells: rat liver (female Wistar rats, dosed p.o.)
T2 sequence (P15589 20-577): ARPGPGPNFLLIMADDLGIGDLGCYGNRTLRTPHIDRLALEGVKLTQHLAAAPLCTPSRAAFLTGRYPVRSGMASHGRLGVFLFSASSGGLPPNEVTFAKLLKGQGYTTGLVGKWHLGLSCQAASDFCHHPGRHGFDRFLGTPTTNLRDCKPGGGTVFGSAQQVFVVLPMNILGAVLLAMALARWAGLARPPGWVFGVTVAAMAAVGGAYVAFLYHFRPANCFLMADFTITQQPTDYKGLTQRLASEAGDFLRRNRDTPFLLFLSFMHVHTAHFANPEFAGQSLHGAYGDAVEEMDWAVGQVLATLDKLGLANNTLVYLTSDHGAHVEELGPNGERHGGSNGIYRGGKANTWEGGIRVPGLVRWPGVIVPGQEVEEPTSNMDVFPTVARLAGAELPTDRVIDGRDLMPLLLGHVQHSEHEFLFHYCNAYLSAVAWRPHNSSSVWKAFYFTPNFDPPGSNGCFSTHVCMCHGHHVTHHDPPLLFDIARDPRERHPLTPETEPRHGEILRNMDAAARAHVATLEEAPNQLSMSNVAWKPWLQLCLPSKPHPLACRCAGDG

[4] = biological target: T3, oestrone sulphatase (E1-STS) (Homo sapiens, UniProt P08842); conditions: 0.1 mM; cited from earlier work
T3 sequence (P08842 22-583): T1 sequence (P08842 22-583)

[5] = biological target: T4, dehydroepiandrosterone sulphatase (DHA-STS) (Rattus norvegicus, UniProt P15589); conditions: administered either orally or subcutaneously; cited from earlier work
T4 construct: host or cells: rat liver
T4 sequence (P15589 20-577): T2 sequence (P15589 20-577)

[6] = biological target: T3, oestrone sulphatase (E1-STS); experiment: Inhibition of steroid sulphatase activity in placental microsomes; assay type: biochemical; design: from tissue; host or cells: human term placenta (microsomal preparation); conditions: 1 μM; -ve % means stimulation; read-out: Placental Microcsomes % inhibition
Experimental: Inhibition of Steroid Sulphatase Activity in Placental Microsomes
Sulphatase-positive human placenta from normal term pregnancies are thoroughly minced with scissors and washed once with cold phosphate buffer (pH 7.4, 50 mM) then re-suspended in cold phosphate buffer (5 ml/g tissue). Homogenisation is accomplished with an Ultra-Turrax homogeniser, using three 10 second bursts separated by 2 minute cooling periods in ice. Nuclei and cell debris are removed by centrifuging (4° C.) at 2000 g for 30 minutes and portions (2 ml) of the supernatant are stored at 20° C.
Incubations (1 ml) are carried out using a protein concentration of 100 mg/ml, substrate concentration of 20 mM [6,7-3H]oestrone-3-sulphate (specific activity 60 Ci/mmol from New England Nuclear, Boston, Mass., U.S.A.) and an incubation time of 20 minutes at 37° C. If necessary eight concentrations of compounds are employed: 0 (i.e. control); 0.05 mM; 0.1 mM; 0.2 mM; 0.4 mM; 0.6 mM; 0.8 mM; 1.0 mM. After incubation each sample is cooled and the medium (1 ml) was pipetted into separate tubes containing [14C]oestrone (7×10^3 dpm) (specific activity 97 Ci/mmol from Amersham International Radiochemical Centre, Amersham, U.K.). The mixture is shaken thoroughly for 30 seconds with toluene (5 ml). […] A portion (2 ml) of the organic phase was removed, evaporated and the 3H and 14C content of the residue determined by scintillation spectrometry. The mass of oestrone-3-sulphate hydrolysed is calculated from the 3H counts obtained (corrected for the volumes of the medium and organic phase used, and for recovery of [14C]oestrone added) and the specific activity of the substrate.

[7] = 48% v/v aq. Ethanol, literature value; cited from earlier work

Experimental for physchem: as §1

Work on `O=C(c1ccc(O)cc1)c1ccc(O)cc1` [4,4′-dihydroxybenzophenone] yielded a pKa [1] of 9.11 ± 0.24.
In the case of `COc1cc2c(cc1OS(N)(=O)=O)CC[C@@H]1[C@@H]2CC[C@]2(C)C(=O)CC[C@@H]12` [Compound 2-MeOEMATE, 2-methoxyoestrone-3-O-sulphamate, reference compound], the oestrogenicity ([2]; rat, in vivo) is listed as “devoid of oestrogenicity”, the “potency as a steroid sulphatase inhibitor” value (steroid sulphatase (STS)) is listed as “equipotent with EMATE” and the “Plate assay % inhibition” value (Plate assay % inhibition; 0.1 μM) is listed as 15%. For the same molecule, the “Plate assay % inhibition” value (Plate assay % inhibition; 1 μM) was 42% and the “Plate assay % inhibition” value (Plate assay % inhibition; 10 μM) was 88%.
For `C[C@]12CC[C@@H]3c4ccc(OS(=O)(=O)O)cc4CC[C@H]3[C@@H]1CCC2=O` [Compound E1S, oestrone sulphate], the half-life in blood [3] is listed as 10 to 12 h.
For `CC12CCC3c4ccc(OS(N)(=O)=O)cc4CCC3C1CCC2=O` (centres unmarked) [EMATE, oestrone-3-sulphamate], the “inhibition of rat liver E1-STS activity” value (liver E1-STS) is given as 99%, the “inhibition of E1-STS activity in intact MCF-7 cells” value [4] is given as “more than 99%” and the “inhibition of rat liver DHA-STS activity” value [5] is given as 99%. The “oral uterotrophic activity relative to oestradiol” value ([2]; rats, oral) was 100 times and the inhibition at 1 µM [6] was 98%.
For `Oc1ccc(Cc2ccc(O)cc2)cc1` [bis-(4-hydroxyphenyl)methane], the pKa [7] is given as 11.22 and the pKa (physchem) is given as 11 ± 0.13.
